# Assay results: patent US11053175B2, “Thioether compounds as nitrification inhibitors” (BASF SE, priority 2015, dated 2021)
# Test system: nitrification in soil
# Assay: Inhibition of nitrification in soil (48 well plate, ammonium sulfate, colour reaction read at 540 nm)
# Assay type: cell-based
# Conditions: dose of 3% a.i./NH, best value obtained, read-out: IN (best inhibition value, inhibition of nitrification = 100 - % activity compared to control)
row,SMILES,inhibition at 3 % strength
1,C#CCSc1sc2ccccc2[n+]1C [Compound 2-1],20%
2,C#CCS/C(N)=N\N=C\c1ccc(N(C)C)cc1 [Compound 2-2],20%
3,C#CC[S+]([O-])Cc1ccc(OC)cc1 (stereo not shown) [Compound 2-3],23%
4,C#CCS(=O)(=O)Cc1ccccc1 [Compound 2-4],23%
5,C#CC[S+]([O-])Cc1ccc(Cl)cc1 (stereo not shown) [Compound 2-5],24%
6,C#CCSCc1ccc(Cl)cc1 [Compound 2-6],28%
7,C#CCSCc1ccccc1 [Compound 2-7],28%
8,C#CCSc1nnc(N)s1 [Compound 2-8],38%
9,C#CCSc1ccccc1 [Compound 2-9],48%
10,C#CCSCC#C [Compound 2-10],97%

# Test system: nitrification in soil
# Assay: as above
# Assay type: cell-based
# Conditions: 72 h, dose of 10 ppm; soil, up to 72 hrs at room temperature; control DMSO only; best value obtained; read-out: IN (best inhibition value, inhibition of nitrification = 100 - % activity compared to control)
# Description: The compounds of the invention have been tested as follows in terms of the inhibition of nitrification: Soil was sampled fresh from a field (e.g. Limburgerhof), dried and sieved through a 500 μm sieve. Approximately 200 mg of soil were placed into each well of a 48 well plate. Compounds, or DMSO alone, were added at a concentration of 10 ppm, dissolved in 1% DMSO. 6 μmol ammonium sulfate was added per well as well as 4.8 mg NaClO3.
# Subsequently, the samples were incubated at room temperature for up to 72 hrs. After the incubation period 64 mg KCl were added and mixed. 25 μl of the supernatant were placed into a fresh plate and 260 μl of a color reaction solution (from Merck Nr 1.11799.0100) were added.
# Measurements were taken with a Tecan plate Reader at 540 nm wavelength.
# Inhibition is calculated as x=% activity compared to control, and converted to 100-x to give the value of inhibition, rather than activity.
row,SMILES,inhibition at 10 ppm
1,C#CCS/C(N)=N\N=C\c1ccc(OC)cc1 [Compound 1-1],42%
2,C#CCSC1=NCCN1/N=C/c1ccc(C)cc1 [Compound 1-3],68%
3,C#CCSc1ncccn1 [Compound 1-6],59%
4,C#CC[S+]([O-])CC#C [Compound 1-7],72%
5,C#CCS(=O)(=O)CC#C [Compound 1-8],70%
6,C#CCS/C(C)=N\O [Compound 1-9],67%
7,C#CCS/C(N)=N\N=C\c1ccc(F)cc1 [Compound 1-10],59%
8,C#CCSc1nc2ccsc2c(=O)n1C [Compound 1-11],55%
9,C#CCSc1nc2c(cc1C#N)CCC2 [Compound 1-12],52%
10,C#CCSc1nnc(S)s1 [Compound 1-13],51%
11,C#CCSC1=NNC(c2ccccn2)S1 (stereo not shown) [Compound 1-17],46%
12,C#CCSc1sc2ccccc2[n+]1C [Compound 1-18],44%
13,C#CCSc1nccn1-c1ncc(C(F)(F)F)cc1Cl [Compound 1-19],42%
14,C#CCCS/C(C)=N\O [Compound 1-20],48%
15,C#CCSc1cnccn1 [Compound 1-21],69%
16,C#CCSc1cnc2ccccc2n1 [Compound 1-23],33%

# Same assay, conditions: dose of 10 ppm; soil, up to 72 hrs at room temperature; control DMSO only; best value obtained
row,SMILES,"IN (best inhibition value, inhibition of nitrification = 100 - % activity compared to control)"
1,C#CCSc1sc2ccccc2[n+]1C.[Br-] [Compound 1-22],42%

# Same assay, conditions: reference compound, same conditions, dose of 10 ppm; read-out: IN (inhibition value, inhibition of nitrification)
row,SMILES,inhibition at 10 ppm
1,"C#Cc1ccccc1 [Phenylacetylene, phenylacetylene, reference compound]",7%
